Results: patent publication US20240425473A2 (priority 2021, published 2024)
Where two headings read alike, the source gives them in different places.

Experiments:
CTPS1 [1] = target: T1, CTPS1 (Homo sapiens, UniProt P17812); type: binding; design: Flag; expressed in transfected cells; host or cells: 293T cells expressing Flag-CTPS1; conditions: 293T cells expressing Flag-CTPS1
T1 sequence (P17812 1-591): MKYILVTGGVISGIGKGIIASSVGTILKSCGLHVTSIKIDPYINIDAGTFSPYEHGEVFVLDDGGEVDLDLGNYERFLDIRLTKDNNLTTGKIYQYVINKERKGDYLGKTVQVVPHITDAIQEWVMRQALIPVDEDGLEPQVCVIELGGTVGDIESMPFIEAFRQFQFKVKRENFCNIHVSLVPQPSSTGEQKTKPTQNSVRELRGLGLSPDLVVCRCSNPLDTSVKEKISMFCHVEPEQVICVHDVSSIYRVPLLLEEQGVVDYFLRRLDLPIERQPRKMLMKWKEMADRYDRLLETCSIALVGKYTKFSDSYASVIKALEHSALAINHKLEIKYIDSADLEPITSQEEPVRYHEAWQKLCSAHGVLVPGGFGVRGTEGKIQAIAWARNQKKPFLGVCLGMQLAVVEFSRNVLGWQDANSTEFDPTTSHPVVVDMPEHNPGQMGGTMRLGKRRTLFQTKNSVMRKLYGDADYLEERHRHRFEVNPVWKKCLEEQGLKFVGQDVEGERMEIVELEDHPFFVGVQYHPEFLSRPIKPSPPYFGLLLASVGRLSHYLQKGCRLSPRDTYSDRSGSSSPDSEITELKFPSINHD

SARS-CoV-2 [2] = type: cell-based
SARS-CoV-2 [3] = type: cell-based; remark: listed apart in the source
IFN-β promoter activity = type: cell-based, human; conditions: for effect on IFN induction, compared with AE-1-10: 293T cells with SeV infection; for IFN induction: Sendai virus
IRF3 deamidation = IRF3 deamidation by two-dimensional gel electrophoresis and immunoblotting; type: cell-based, human; conditions: Caco-2 cells expressing ORF8 or A549 cells expressing Nsp8; 5 μM
IFNB1 expression = type: cell-based, human; conditions: 293T cells pre-treated 2 h, Sendai virus infection 9 h
NF-κB promoter activity = type: cell-based, human; conditions: 293T cells
CTP synthesis = type: cell-based, human
[4] = system: antiviral genes IFNB1, ISG56, CCL5 and Mx1; type: cell-based, human
CTPS1 [5] = target: T1, CTPS1; type: biochemical; design: made in house; conditions: with respect to UTP, 2 mM ATP, 2 mM L-glutamine, 0.1 mM GTP, Michaelis-Menten
CTPS1 [6] = target: T1, CTPS1; experiment: Click-based cross-linking, affinity purification and mass spectrometry to identify cellular targets; type: binding; design: endogenous in cells; conditions: ranked lower than several other proteins; data not shown
SARS-CoV-2 [7] = system: SARS-CoV-2; design: species or system mice; conditions: mouse, in vivo, ip, 35 mg/kg

Compound: C#CCOc1cccc(NC(=O)c2cccc([N+](=O)[O-])c2)c1 [BE-2-10]
- reaction (labeling) with CTPS1 (CTPS1 [1]): reacted with CTPS1 in a dose-dependent manner

Compound: COc1cccc(NC(=O)c2cc(NC(=O)CCl)cs2)c1 [B7]
- reduction of viral RNA abundance compared to the vehicle (DMSO) (SARS-CoV-2 [2]): ~5 order of magnitude
- effect on viral titer (SARS-CoV-2 [3]): reduced viral titer to the limit of detection

Compound: O=C(CCl)Nc1cccc(C(=O)NC2CCCCC2)c1 [C1]
- effect on IFN induction, compared with AE-1-10 (IFN-β promoter activity): no effect

Compound: O=C(CCl)Nc1cccc(C(=O)NC2CCCC2)c1 [B4]
- reduction of viral RNA abundance relative to C9 (SARS-CoV-2 [2]): significant improvement compared to C9

Compound: COc1cccc(NC(=O)c2cccc(NC(=O)CCl)c2)c1 [AE-1-10]
- inhibition of IRF3 deamidation (IRF3 deamidation): best efficacy to inhibit IRF3 deamidation
- IFNB1 expression (IFNB1 expression): increased IFNB1 expression in a dose-dependent manner
- IFN induction (IFN-β promoter activity; CTPS1-depleted 293T cells): failed to do so
- IFN induction (IFN-β promoter activity; control 293T cells): elevated IFN induction
- NF-κB activation (NF-κB promoter activity): no effect
- [15N]CTP and [15N]CDP (CTP synthesis): reduced [^15N]CTP and, much more so [^15N]CDP in a dose-dependent manner
- intracellular concentration of [15N]CTP and [15N]CDP (CTP synthesis): reduced the intracellular concentration of [^15N]CTP and [^15N]CDP
- antiviral gene expression [4]: elevated antiviral gene expression
- expression of antiviral genes (IFNB1, ISG56, CCL5, Mx1) [4]: elevated
- viral RNA (SARS-CoV-2 [2]): reduced viral RNA
- viral yield (SARS-CoV-2 [3]): reduced viral RNA and yield

Compound: COc1ccc(NC(=O)c2cccc(NC(=O)CCl)c2)cc1 [C4]
- effect on IFN induction, compared with AE-1-10 (IFN-β promoter activity): improved effect to increase IFN induction

Compound: ORF7b: SARS-CoV-2 polypeptide transiently expressed in the 293T cells from which CTPS1 was purified
- Kcat (CTPS1 [5]): 0.0147 ± 0.006 s⁻¹
- Km (CTPS1 [5]): 30.5 ± 21.5 mM

Compound: CCc1ccccc1NC(=O)c1cccc(NC(=O)CCl)c1 [B8]
- reduction of viral RNA abundance relative to C9 (SARS-CoV-2 [2]): significant improvement compared to C9
- effect on viral titer (SARS-CoV-2 [3]): better effect than C9

Compound: O=C(CCl)Nc1cccc(C(=O)Nc2ncc[nH]2)c1 [C6]
- effect on IFN induction, compared with AE-1-10 (IFN-β promoter activity): modest effect

Compound: CCCCCNC(=O)c1ccc(NC(=O)CCl)s1 [B1]
- reduction of viral RNA abundance compared to the vehicle (DMSO) (SARS-CoV-2 [2]): ~5 order of magnitude
- effect on viral titer (SARS-CoV-2 [3]): reduced viral titer to the limit of detection

Compound: O=C(CCl)Nc1csc(C(=O)Nc2ccccc2)c1 [C8]
- effect on IFN induction, compared with AE-1-10 (IFN-β promoter activity): improved effect to increase IFN induction

Compound: O=C(Nc1ccccc1)c1ccc([N+](=O)[O-])s1 [C7]
- effect on IFN induction, compared with AE-1-10 (IFN-β promoter activity): modest effect

Compound: COc1ccccc1NC(=O)c1cccc(NC(=O)CCl)c1 [C5]
- effect on IFN induction, compared with AE-1-10 (IFN-β promoter activity): improved effect to increase IFN induction
- antiviral activity in SARS-CoV-2 infection, compared to AE-1-10 (SARS-CoV-2 [3]): more robust antiviral activity

Compound: C#CCOc1cccc(Nc2ncnc3ccc(NC(=O)CCl)cc23)c1 [Q6ca]
- cellular target identification (CTPS1 [6]): identification of CTPS1 as a cellular target

Compound: CCCCCNC(=O)c1cccc(NC(=O)CCl)c1 [C9]
- effect on IFN induction, compared with AE-1-10 (IFN-β promoter activity): improved effect to increase IFN induction
- reduction of viral RNA abundance compared to the vehicle (DMSO) (SARS-CoV-2 [2]): ~2 order of magnitude
- antiviral activity in SARS-CoV-2 infection, compared to AE-1-10 (SARS-CoV-2 [3]): more robust antiviral activity
- reduction of SARS-CoV-2 titer (SARS-CoV-2 [3]): ~3 order of magnitude
- protection against SARS-CoV-2 infection (SARS-CoV-2 [7]): protect against infection

Compound: COc1ccccc1NC(=O)c1cc(NC(=O)CCl)cs1 [B2]
- reduction of viral RNA abundance compared to the vehicle (DMSO) (SARS-CoV-2 [2]): ~5 order of magnitude
- effect on viral titer (SARS-CoV-2 [3]): reduced viral titer to the limit of detection

Compound: Cc1ccccc1NC(=O)c1cccc(NC(=O)CCl)c1 [B5]
- reduction of viral RNA abundance relative to C9 (SARS-CoV-2 [2]): significant improvement compared to C9
- effect on viral titer (SARS-CoV-2 [3]): better effect than C9

Compound: [N-]=[N+]=CC(=O)CC[C@H](N)C(=O)O [DON, 6-diazo-5-oxo-L-norleucine, reference compound]
- Sendai virus-induced IFN-β gene expression (IFN-β promoter activity; CTPS1 depleted and control 293T cells): elevated

Compound: COc1cccc(N(C)C(=O)c2cccc(NC(=O)CCl)c2)c1 [C2]
- effect on IFN induction, compared with AE-1-10 (IFN-β promoter activity): no effect

Compound: ORF8: SARS-CoV-2 polypeptide transiently expressed in the 293T cells from which CTPS1 was purified
- Kcat (CTPS1 [5]): 0.0212 ± 0.0137 s⁻¹
- Km (CTPS1 [5]): 55.2 ± 50.3 mM
